Test results taken from PubChem BioAssay AID2060497 (Molecular Pharmacology Branch, DTP, NCI, 2025).

Tested on: 317291-083-R-J1-PDC complex spheroids, viability
Assay: Anticancer human tumor 317291-083-R-J1-PDC patient-derived soft tissue sarcoma cell line growth inhibition [GQUAD]
Details: for IC50: curve of first compound; for viability, T/C: stronger effect = lower value
Source text: DNA G-quadruplex Stabilizer Agents in Combinations in Complex Spheroids
A high-throughput screen of multi-cell type tumor spheroids was designed to identify active combinations of DNA G-quadruplex stabilizer agents and targeted small molecules. Complex spheroids include a stromal component modeled by human endothelial cells (HUVEC) and fibroblasts modeled by human mesenchymal stem cells (MSCs). The concentration ranges selected for each drug and investigational agent were based upon clinically achievable concentrations if the clinical Cmax of the agent was known.
Compounds. The drugs and investigational agents: pidnarulex (CX-5461; NSC782164), APTO-253 (NSC789042), BRACO-19 (NSC847499), peposertib (NSC802822), ceralasertib (NSC780249), elimusertib (NSC800525), camonsertib (NSC841442), AZD-1390 (NSC803789), olaparib (NSC753686), talazoparib (NSC767125), ART-558 (NSC835418), sotorasib (NSC818433), MRTX-1133 (NSC836407), SN-38 (NSC673596), topotecan (NSC609699), etoposide (NSC141540), doxorubicin (NSC123127), gemcitabine (NSC613327), 5-fluorouracil (NSC19893), paclitaxel (NSC125973), vemurafenib (NSC761431), panobinostat (NSC761190), R-306465 (JNJ-16241199; NSC773264), adavosertib (NSC754352), TP-3654 (NSC805149), carboplatin (NSC241240), KSQ-4279 (NSC840948), and staurosporine (NSC755774) were obtained from the National Cancer Institute (NCI) Developmental Therapeutics Program Chemical Repository (34). The FDA-approved anticancer drug set is available from the NCI Developmental Therapeutics Program. […] The stock solutions were prepared in dimethyl sulfoxide (DMSO, Sigma-Aldrich, St. Louis, MO, cat. D2650) at 800-fold the tested concentration and stored at -70 degrees C prior to their use. All drugs and investigational agents were tested over a range starting from a high concentration at or near the clinical Cmax and decreasing in half-log increments. If the clinical Cmax for an agent had not been determined, the highest concentration tested was 10 microM.
2.3 Cell Culture. All cells were maintained in an incubator at 37 degrees C and 5% CO2 with 95% humidity. The PDC lines were cultured according to standard operating procedures established by the NCI PDMR. All PDCs were thawed and cultured in Matrigel-coated flasks prepared with a working solution of 1X Ham's F-12 nutrient mix, without supplementation (Invitrogen, cat. 11765054), 100 U/mL penicillin-streptomycin (Invitrogen, cat. 15140122), and 2.5% Matrigel (Corning Inc., cat. 354248) for the first three passages. The 857933-349-R-J2-PDC line was cultured in 6C/Colon 1B media, which includes advanced DMEM/F-12 (Thermo Fisher Scientific, cat. 12634028), 10 mM HEPES (Thermo Fisher Scientific, cat. 15630080), 1X GlutaMAX supplement (Thermo Fisher Scientific, cat. 35050061), 0.1 mg/mL primocin (InvivoGen, cat. ant-pm-2), 10% defined fetal bovine serum, heat inactivated (HyClone Laboratories Inc., cat. SH30070.03HI), 50% L-WRN conditioned media (ATCC, cat. CRL-3276), 1.25 mM N-Acetyl-L-cysteine (Sigma-Aldrich, cat. A9165), 10 mM nicotinamide (Sigma-Aldrich, cat. N0636), 1X B-27 supplement (Thermo Fisher Scientific, cat. 17504044), 1X N-2 supplement (Thermo Fisher Scientific, cat. 17502048), 10 microM Y-27632 dihydrochloride (Tocris Bioscience, cat. 1254), and 50 ng/mL human EGF recombinant protein (Thermo Fisher Scientific, cat. PHG0311). The 485176-168-R4-J1-PDC line was cultured in Panc media, which includes all 6C/Colon 1B media components plus 100 ng/mL human FGF-10 (Thermo Fisher Scientific, cat. 100-26), 500 nM SB-431542 (Selleckchem, cat. S1067), and gastrin (Tocris, cat. 3006).
[…]

[1] = second compound 0.0316 µM, first compound 0.0316 µM
[2] = second compound 0.0316 µM, first compound 0.1 µM
[3] = second compound 0.0316 µM, first compound 0.316 µM
[4] = second compound 0.0316 µM, first compound 1 µM
[5] = second compound 0.0316 µM, first compound 3.16 µM
[6] = second compound 0.0316 µM, first compound 10 µM
[7] = second compound 0.1 µM, first compound 0.0316 µM
[8] = second compound 0.1 µM, first compound 0.1 µM
[9] = second compound 0.1 µM, first compound 0.316 µM
[10] = second compound 0.1 µM, first compound 1 µM
[11] = second compound 0.1 µM, first compound 3.16 µM
[12] = second compound 0.1 µM, first compound 10 µM
[13] = second compound 0.316 µM, first compound 0.0316 µM
[14] = second compound 0.316 µM, first compound 0.1 µM
[15] = second compound 0.316 µM, first compound 0.316 µM
[16] = second compound 0.316 µM, first compound 1 µM
[17] = second compound 0.316 µM, first compound 3.16 µM
[18] = second compound 0.316 µM, first compound 10 µM
[19] = second compound 1 µM, first compound 0.0316 µM
[20] = second compound 1 µM, first compound 0.1 µM
[21] = second compound 1 µM, first compound 0.316 µM
[22] = second compound 1 µM, first compound 1 µM
[23] = second compound 1 µM, first compound 3.16 µM
[24] = second compound 1 µM, first compound 10 µM
[25] = second compound 3.16 µM, first compound 0.0316 µM
[26] = second compound 3.16 µM, first compound 0.1 µM
[27] = second compound 3.16 µM, first compound 0.316 µM
[28] = second compound 3.16 µM, first compound 1 µM
[29] = second compound 3.16 µM, first compound 3.16 µM
[30] = second compound 3.16 µM, first compound 10 µM
[31] = second compound 10 µM, first compound 0.0316 µM
[32] = second compound 10 µM, first compound 0.1 µM
[33] = second compound 10 µM, first compound 0.316 µM
[34] = second compound 10 µM, first compound 1 µM
[35] = second compound 10 µM, first compound 3.16 µM
[36] = second compound 10 µM, first compound 10 µM
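Note: spheroids exposed to compounds for one week before readout.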
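Throughout, for viability, T/C: percent viability relative to DMSO vehicle wells taken as 100%.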

`CC(=O)O[C@H]1C(=O)[C@@]2(C)[C@H]([C@H](OC(=O)c3ccccc3)[C@]3(O)C[C@H](OC(=O)[C@H](O)[C@@H](NC(=O)c4ccccc4)c4ccccc4)C(C)=C1C3(C)C)[C@]1(OC(C)=O)CO[C@@H]1C[C@@H]2O` + Cc1[nH]c2ccc(F)cc2c1-c1nc2c3cccnc3c3ncccc3c2[nH]1 showed an IC50 (second compound 0.0316 µM) of less than 31.6 nM, an IC50 (second compound 0.1 µM) of less than 31.6 nM and an IC50 (second compound 0.316 µM) of less than 31.6 nM. It also gave an IC50 (second compound 1 µM) of less than 31.6 nM, an IC50 (second compound 3.16 µM) of less than 31.6 nM and an IC50 (second compound 10 µM) of less than 31.6 nM. For the same molecule, the viability, T/C [1] was 45.6%, the viability, T/C [2] was 19.7% and the viability, T/C [3] was 15.5%. It also gave a viability, T/C [4] of 16.5%, a viability, T/C [5] of 13.9% and a viability, T/C [6] of 12.1%. The viability, T/C [7] was 46.6%, the viability, T/C [8] was 21.5% and the viability, T/C [9] was 12.2%. The viability, T/C [10] was 17.6%, the viability, T/C [11] was 15.1% and the viability, T/C [12] was 16.6%. It also gave a viability, T/C [13] of 40%, a viability, T/C [14] of 18.9% and a viability, T/C [15] of 16.8%. It also gave a viability, T/C [16] of 15.3%, a viability, T/C [17] of 13.7% and a viability, T/C [18] of 16.1%. The viability, T/C [19] was 32.9%, the viability, T/C [20] was 18% and the viability, T/C [21] was 17.2%. The viability, T/C [22] was 17.7%, the viability, T/C [23] was 16.1% and the viability, T/C [24] was 12.7%. It also gave a viability, T/C [25] of 20.1%, a viability, T/C [26] of 11% and a viability, T/C [27] of 12.4%. The viability, T/C [28] was 11.6%, the viability, T/C [29] was 10.7% and the viability, T/C [30] was 8.8%. For the same molecule, the viability, T/C [31] was 27%, the viability, T/C [32] was 17.1% and the viability, T/C [33] was 15.2%. It also gave a viability, T/C [34] of 14.7%, a viability, T/C [35] of 12.7% and a viability, T/C [36] of 12.5%.
`Cc1cccc(N(C)C(=O)C2C(O)CCN2c2nc(C)cc(C(F)(F)F)c2C#N)c1` (stereo unspecified) + CN(C)c1ccc(Nc2c3ccc(NC(=O)CCN4CCCC4)cc3nc3cc(NC(=O)CCN4CCCC4)ccc23)cc1 gave an IC50 (second compound 0.0316 µM) greater than 10000 nM, an IC50 (second compound 0.1 µM) greater than 10000 nM and an IC50 (second compound 0.316 µM) greater than 10000 nM. It also gave an IC50 (second compound 1 µM) of 548 nM, an IC50 (second compound 3.16 µM) of less than 31.6 nM and an IC50 (second compound 10 µM) of less than 31.6 nM. For the same molecule, the viability, T/C [1] was 101%, the viability, T/C [2] was 107% and the viability, T/C [3] was 93.1%. It also gave a viability, T/C [4] of 91.9%, a viability, T/C [5] of 85.5% and a viability, T/C [6] of 78.1%. For the same molecule, the viability, T/C [7] was 107%, the viability, T/C [8] was 99.2% and the viability, T/C [9] was 116%. It also gave a viability, T/C [10] of 84.8%, a viability, T/C [11] of 75.9% and a viability, T/C [12] of 83.9%. The viability, T/C [13] was 103%, the viability, T/C [14] was 93.3% and the viability, T/C [15] was 79.9%. The viability, T/C [16] was 62.9%, the viability, T/C [17] was 79.8% and the viability, T/C [18] was 46.5%. The viability, T/C [19] was 68.3%, the viability, T/C [20] was 51.1% and the viability, T/C [21] was 57.4%. For the same molecule, the viability, T/C [22] was 45.1%, the viability, T/C [23] was 42.6% and the viability, T/C [24] was 30%. It also gave a viability, T/C [25] of 29.9%, a viability, T/C [26] of 46.2% and a viability, T/C [27] of 21.3%. For the same molecule, the viability, T/C [28] was 25.1%, the viability, T/C [29] was 17.1% and the viability, T/C [30] was 9.2%. It also gave a viability, T/C [31] of 7.38%, a viability, T/C [32] of 11.6% and a viability, T/C [33] of 10.1%. For the same molecule, the viability, T/C [34] was 3.67%, the viability, T/C [35] was 3.05% and the viability, T/C [36] was 1.88%.
`O=c1[nH]cc(F)c(=O)[nH]1` + Cc1[nH]c2ccc(F)cc2c1-c1nc2c3cccnc3c3ncccc3c2[nH]1 was tested, and the IC50 (second compound 0.0316 µM) was 5340 nM, the IC50 (second compound 0.1 µM) was 1680 nM and the IC50 (second compound 0.316 µM) was 1770 nM. It also gave an IC50 (second compound 1 µM) of 1600 nM, an IC50 (second compound 3.16 µM) of 2710 nM and an IC50 (second compound 10 µM) of 823 nM. The viability, T/C [1] was 118%, the viability, T/C [2] was 117% and the viability, T/C [3] was 116%. The viability, T/C [4] was 69.5%, the viability, T/C [5] was 73.3% and the viability, T/C [6] was 31.8%. For the same molecule, the viability, T/C [7] was 110%, the viability, T/C [8] was 106% and the viability, T/C [9] was 96.7%. For the same molecule, the viability, T/C [10] was 62.2%, the viability, T/C [11] was 34.7% and the viability, T/C [12] was 30.6%. For the same molecule, the viability, T/C [13] was 108%, the viability, T/C [14] was 104% and the viability, T/C [15] was 89.1%. The viability, T/C [16] was 63.6%, the viability, T/C [17] was 35.4% and the viability, T/C [18] was 31.8%. The viability, T/C [19] was 93.9%, the viability, T/C [20] was 102% and the viability, T/C [21] was 102%. The viability, T/C [22] was 60.9%, the viability, T/C [23] was 36.5% and the viability, T/C [24] was 31.9%. It also gave a viability, T/C [25] of 99.3%, a viability, T/C [26] of 86.6% and a viability, T/C [27] of 79.2%. For the same molecule, the viability, T/C [28] was 45.2%, the viability, T/C [29] was 64.3% and the viability, T/C [30] was 30.2%. It also gave a viability, T/C [31] of 73.6%, a viability, T/C [32] of 75.9% and a viability, T/C [33] of 81.5%. For the same molecule, the viability, T/C [34] was 44.5%, the viability, T/C [35] was 33% and the viability, T/C [36] was 27.4%.
